From publication PMC8443696, “Structural determinants and regulation of spontaneous activity in GABAA receptors” (Nature Communications, 2021)
Where “and” joins values, the source holds several entries; their conditions need not be identical. Equal values may be shown once. Read-outs that look alike come from different tables or passages of the source.

Tests used:
α4β3δ receptors [1] = target: T1, α4β3δ receptors (UniProt P18506+P63080+Q9D6F4); format: cell-based, mouse;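 on GABA current, Supp. Fig. 2b: GABA applied at 0.3 µM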
T1 construct: expressed in transfected cells; host or cells: HEK 293
Text: (§1) All components were obtained from Life Technologies.
(§2) Currents were acquired with Clampex ver.
(§3) Cells were voltage clamped at −40 mV.
(§4) All data were normalised to the fitted maximum response.

α4β3^DNTKδ receptors = α4β3^DNTKδ receptors (UniProt P18506+P63080+Q9D6F4, E204T/G196D/K198N/R205K)
Text: as §1, §2, §3, §4

α4β3^K279Tγ2L receptors = α4β3^K279Tγ2L receptors (Mus musculus, UniProt P22723+P63080+Q9D6F4, K304T)
Text: as §1, §2, §3, §4

α4β3γ2L receptors [2] = target: T2, α4β3γ2L receptors (Mus musculus, UniProt P22723+P63080+Q9D6F4); test: GABA concentration-response curves, whole-cell patch clamp in HEK cells; format: cell-based
T2 construct: expressed in transfected cells; host or cells: HEK 293
Text: as §1, §2, §3, §4

α4β3δ receptors [3] = target: T1, α4β3δ receptors; format: cell-based, mouse; conditions: α4β3δ GABA (Fig. 1d); GABA 500 µM, PTX 100 µM; individual cells
Text: as §1, §2, §3
(§5) For assessment of the efficacy of allosteric modulators on spontaneous activity, compounds were briefly applied (3–5 s) to achieve steady-state currents (IMod). […] The IMod was summed with IPTX (or subtracted for inhibitory modulators) and the Ispont calculated, as described by Eq. (2):2 Ispont(%)=[(IPTX+IMod)/(IPTX+IMax)]×100……………………………………

α1β3γ2L receptors = tested on: T3, α1β3γ2L receptors; test: Quantification of spontaneous activity (Ispont) in HEK cells, whole-cell patch clamp; format: cell-based, mouse; conditions: α1β3γ2L GABA (Fig. 1d); GABA 500 µM, PTX 100 µM; individual cells
T3 construct: expressed in transfected cells; host or cells: HEK 293
Text: as §1, §2, §3, §5

α4β3 receptors = tested on: T4, α4β3 receptors; test: Agonist-evoked whole-cell currents and their modulation by Zn2+ / DS2 in HEK cells;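 on GABA current, Supp. Fig. 2b: GABA applied at 0.3 µM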; format: cell-based, mouse; set-up: GABA current, Supp. Fig. 2b / GABA + DS2 current, Supp. Fig. 2b / GABA current, Supp. Fig. 2a: unit not given here
T4 construct: expressed in transfected cells; host or cells: HEK 293
Text: as §1, §2, §3

α4β3δ receptors [4] = target: T1, α4β3δ receptors; test: as above; format: cell-based, mouse; conditions: GABA alone, individual cells
Text: as §1, §2, §3

α4β3γ2L receptors [5] = target: T2, α4β3γ2L receptors; test: Agonist-evoked whole-cell currents and their modulation by Zn2+ in HEK cells; format: cell-based; conditions: GABA alone, individual cells
Text: as §1, §2, §3

NCCCC(=O)O [GABA, γ-aminobutyric acid]
GABA current normalised to the fitted maximum response (α4β3δ receptors [1]; [GABA] 0.1, individual cells): 0.5073 and 0.405 and 0.6131
nH (α4β3δ receptors [1]; individual cells): 0.63 and 0.57 and 0.45 and 0.59 and 0.53 and 0.44 and 0.46 and 0.51
Hill coefficient (α4β3δ receptors [1]; mean ± SEM, n = 9): 0.5 ± 0.02
GABA current normalised to the fitted maximum response (α4β3^DNTKδ receptors; α4β3DNTKδ, [GABA] 0.01, individual cells): 0.0007434 and 0.002452 and 0.03107 and 0.001383 and 0.00433 and 0.003861 and 0.002036 and 0.01162 and 0 and 0.01893
GABA current normalised to the fitted maximum response (α4β3^DNTKδ receptors; α4β3DNTKδ, [GABA] 0.03, individual cells): 0.007062 and 0.01195 and 0.04826 and 0.01383 and 0.009382 and 0.004413 and 0.007126 and 0.02054 and 0.004552 and 0.04327
GABA current normalised to the fitted maximum response (α4β3^DNTKδ receptors; α4β3DNTKδ, [GABA] 0.1, individual cells): 0.04328 and 0.0495 and 0.09628 and 0.06221 and 0.03922 and 0.04794 and 0.04133 and 0.1252 and 0.03443 and 0.105
GABA current normalised to the fitted maximum response (α4β3^DNTKδ receptors; α4β3DNTKδ, [GABA] 0.3, individual cells): 0.1541 and 0.16 and 0.2541 and 0.193 and 0.1198 and 0.1414 and 0.1295 and 0.114 and 0.2315
GABA current normalised to the fitted maximum response (α4β3^DNTKδ receptors; α4β3DNTKδ, [GABA] 1, individual cells): 0.3807 and 0.3987 and 0.5261 and 0.4351 and 0.4134 and 0.5199 and 0.3786 and 0.5032
GABA current normalised to the fitted maximum response (α4β3^DNTKδ receptors; α4β3DNTKδ, [GABA] 3, individual cells): 0.6642 and 0.6962 and 0.7428 and 0.6422 and 0.5604 and 0.7146 and 0.5958 and 0.7349 and 0.6146 and 0.6907
GABA current normalised to the fitted maximum response (α4β3^DNTKδ receptors; α4β3DNTKδ, [GABA] 10, individual cells): 0.8725 and 0.8838 and 0.9794 and 0.868 and 0.8251 and 0.879 and 0.7932 and 0.8504 and 0.9182 and 0.913
GABA current normalised to the fitted maximum response (α4β3^DNTKδ receptors; α4β3DNTKδ, [GABA] 30, individual cells): 0.9699 and 0.9833 and 0.9744 and 0.9032 and 0.8901 and 0.9131 and 0.9034 and 0.7914 and 0.976 and 0.9404
GABA current normalised to the fitted maximum response (α4β3^DNTKδ receptors; α4β3DNTKδ, [GABA] 100, individual cells): 0.9851 and 0.9946 and 0.9484 and 0.9857 and 0.9989 and 1.0526 and 1.007 and 0.9834 and 1.041 and 0.9979
GABA current normalised to the fitted maximum response (α4β3^DNTKδ receptors; α4β3DNTKδ, [GABA] 300, individual cells): 0.994 and 0.9896 and 0.9955 and 1.01 and 0.9818 and 1.0044 and 0.9828 and 1.081 and 0.9165 and 0.972
nH (α4β3^DNTKδ receptors; α4β3DNTKδ, individual cells): 0.91 and 0.96 and 1.1 and 0.94 and 0.75 and 1.12 and 1.06 and 1
Hill coefficient (α4β3^DNTKδ receptors; α4β3^DNTKδ, mean ± SEM, n = 10): 1.0 ± 0.04
GABA current normalised to the fitted maximum response (α4β3^K279Tγ2L receptors; α4β3K279Tγ2L, [GABA] 0.001, individual cells): 0.2519 and 0 (3×) and 0.1524 and 0.248
GABA current normalised to the fitted maximum response (α4β3^K279Tγ2L receptors; α4β3K279Tγ2L, [GABA] 0.003, individual cells): 0.1404 and 0.2434 and 0.2001 and 0.06943 and 0 (2×)
GABA current normalised to the fitted maximum response (α4β3^K279Tγ2L receptors; α4β3K279Tγ2L, [GABA] 0.01, individual cells): 0.2519 and 0.1217 and 0.166 and 0.124 and 0.0823 and 0.03949
GABA current normalised to the fitted maximum response (α4β3^K279Tγ2L receptors; α4β3K279Tγ2L, [GABA] 0.03, individual cells): 0.2267 and 0.2011 and 0.2911 and 0.2232 and 0.2097 and 0.1075
GABA current normalised to the fitted maximum response (α4β3^K279Tγ2L receptors; α4β3K279Tγ2L, [GABA] 0.1, individual cells): 0.3277 and 0.4723 and 0.5922 and 0.2125 and 0.4931 and 0.3266
GABA current normalised to the fitted maximum response (α4β3^K279Tγ2L receptors; α4β3K279Tγ2L, [GABA] 0.3, individual cells): 0.407 and 0.5504 and 0.3093 and 1.165 and 0.3595
GABA current normalised to the fitted maximum response (α4β3^K279Tγ2L receptors; α4β3K279Tγ2L, [GABA] 1, individual cells): 0.6167 and 0.8427 and 0.9144 and 0.4437 and 0.6991 and 0.6708
GABA current normalised to the fitted maximum response (α4β3^K279Tγ2L receptors; α4β3K279Tγ2L, [GABA] 3, individual cells): 0.7288
nH (α4β3^K279Tγ2L receptors; α4β3K279Tγ2L, individual cells): 0.3987 and 0.6455 and 0.6824 and 0.44 and 1.925 and 0.7169
Hill coefficient (α4β3^K279Tγ2L receptors; α4β3^K279Tγ2L, mean ± SEM, n = 6): 0.8 ± 0.2
GABA current normalised to the fitted maximum response (α4β3γ2L receptors [2]; [GABA] 0.01, individual cells): 0.001664 and 0.002276 and 0.001669 and 0.01171 and 0.01147
GABA current normalised to the fitted maximum response (α4β3γ2L receptors [2]; [GABA] 0.03, individual cells): 0.005144 and 0.004138 and 0.00402 and 0.01346 and 0.01822
GABA current normalised to the fitted maximum response (α4β3γ2L receptors [2]; [GABA] 0.1, individual cells): 0.01452 and 0.01076 and 0.01069 and 0.03174 and 0.04395
GABA current normalised to the fitted maximum response (α4β3γ2L receptors [2]; [GABA] 0.3, individual cells): 0.02596 and 0.02427 and 0.06574 and 0.085
GABA current normalised to the fitted maximum response (α4β3γ2L receptors [2]; [GABA] 1, individual cells): 0.09711 and 0.06608 and 0.07868 and 0.1536 and 0.188
GABA current normalised to the fitted maximum response (α4β3γ2L receptors [2]; [GABA] 3, individual cells): 0.2349 and 0.1582 and 0.203 and 0.3143 and 0.3127
GABA current normalised to the fitted maximum response (α4β3γ2L receptors [2]; [GABA] 10, individual cells): 0.4431 and 0.3362 and 0.4922 and 0.6263 and 0.5927
GABA current normalised to the fitted maximum response (α4β3γ2L receptors [2]; [GABA] 30, individual cells): 0.548 and 0.6886 and 0.7844 and 0.7581
GABA current normalised to the fitted maximum response (α4β3γ2L receptors [2]; [GABA] 100, individual cells): 0.7417 and 0.7257 and 0.7724 and 0.8852 and 0.8968
GABA current normalised to the fitted maximum response (α4β3γ2L receptors [2]; [GABA] 300, individual cells): 0.8265 and 0.8069 and 0.8364 and 0.9453 and 0.9104
GABA current normalised to the fitted maximum response (α4β3γ2L receptors [2]; [GABA] 1000, individual cells): 0.9797 and 0.9449 and 0.994 and 1.0249 and 1.018
GABA current normalised to the fitted maximum response (α4β3γ2L receptors [2]; [GABA] 3000, individual cells): 0.9857 and 0.9907 and 1.044 and 0.9972 and 0.9754
nH (α4β3γ2L receptors [2]; individual cells): 0.6867 and 0.7293 and 0.7792 and 0.8713 and 0.7855
Hill coefficient (α4β3γ2L receptors [2]; mean ± SEM, n = 5): 0.8 ± 0.03
Ispont, IMax from GABA (α4β3δ receptors [3]): 6.076% and 14.3782% and 18.0154% and 11.8804% and 19.3061% and 35.4037% and 16.1707%
Ispont, IMax from GABA (α1β3γ2L receptors): 0.9134% and 0.3206% and 5.267% and 3.501% and 0.7067% and 1.417%
Whole-cell current activated by GABA (α4β3 receptors; 500 µM GABA, n = 7): 237 ± 95 pA
GABA current, Supp. Fig. 2a (α4β3 receptors; GABA alone, individual cells): 0.31 and 0.16 and 0.22 and 0.23 and 0.064
GABA current, Supp. Fig. 2b (α4β3 receptors; GABA alone, individual cells): 0.04 and 0.13 and 0.11 and 0.10 and 0.27
GABA current, Supp. Fig. 2a (α4β3δ receptors [4]): 0.41 and 0.73 and 1.32 and 2.78
GABA current, Supp. Fig. 2b (α4β3δ receptors [4]): 0.53 and 0.27 and 0.065 and 0.26 and 0.65
GABA current, Supp. Fig. 2a (α4β3γ2L receptors [5]): 1.69 and 2.20 and 3.55 and 12.70
